Laboratory results published in PubChem BioAssay AID330 (DTP/NCI, 2004).
“And” between values parts separate entries of the source, which are not always exact repeats. Equal values may be shown once. Inconclusive results and toxic doses are left out.

System: P388 leukemia ip, CD2F1 mice, survival T/C
Experiment: NCI In Vivo Anticancer Drug Screen. Data for tumor model P388 Leukemia (intraperitoneal) in CD2F1 (CDF1) mice
Details: endpoint: median survival time, higher = longer survival
In short: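 Mice carrying the transplanted tumor received test compound or vehicle. Survival was recorded in each group, and the value is the treated-group measurement divided by that of the vehicle-treated control group.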

[1] = dose: 12.5 mg/kg/injection, schedule: Q01DX005 (ip), vehicle: saline with Tween-80
[2] = dose: 25.0 mg/kg/injection, schedule: Q01DX005 (ip), vehicle: saline with Tween-80
[3] = dose: 50.0 mg/kg/injection, schedule: Q01DX005 (ip), vehicle: saline with Tween-80
[4] = dose: 100.0 mg/kg/injection, schedule: Q01DX005 (ip), vehicle: saline with Tween-80
[5] = dose: 12.5 mg/kg/injection, schedule: Q01DX009 (ip), vehicle: saline with Tween-80
[6] = dose: 25.0 mg/kg/injection, schedule: Q01DX009 (ip), vehicle: saline with Tween-80
[7] = dose: 50.0 mg/kg/injection, schedule: Q01DX009 (ip), vehicle: saline with Tween-80
[8] = dose: 100.0 mg/kg/injection, schedule: Q01DX009 (ip), vehicle: saline with Tween-80
[9] = dose: 200.0 mg/kg/injection, schedule: Q01DX009 (ip), vehicle: saline with Tween-80
[10] = dose: 12.5 mg/kg/injection, schedule: Q01DX009 (ip), vehicle: Klucel (hydroxypropylcellulose) (HPC)
[11] = dose: 25.0 mg/kg/injection, schedule: Q01DX009 (ip), vehicle: Klucel (hydroxypropylcellulose) (HPC)
[12] = dose: 60.0 mg/kg/injection, schedule: Q01DX005 (ip), vehicle: saline with Tween-80
[13] = dose: 120.0 mg/kg/injection, schedule: Q01DX005 (ip), vehicle: saline with Tween-80
[14] = dose: 240.0 mg/kg/injection, schedule: Q01DX005 (ip), vehicle: saline with Tween-80
[15] = dose: 50.0 mg/kg/injection, schedule: Q01DX009 (ip), vehicle: Klucel (hydroxypropylcellulose) (HPC)
[16] = dose: 100.0 mg/kg/injection, schedule: Q01DX009 (ip), vehicle: Klucel (hydroxypropylcellulose) (HPC)
[17] = dose: 200.0 mg/kg/injection, schedule: Q01DX009 (ip), vehicle: Klucel (hydroxypropylcellulose) (HPC)

In the case of `CCOC(=O)Cn1c(O)c(C2=c3cc(Br)ccc3=NC2=O)sc1=O`, the T/C (dose: 100.0 mg/kg/injection, schedule: Q01DX001 (ip), vehicle: Klucel (hydroxypropylcellulose) (HPC)) is reported as 95 % of control, the T/C (dose: 200.0 mg/kg/injection, schedule: Q01DX001 (ip), vehicle: Klucel (hydroxypropylcellulose) (HPC)) is reported as 98 % of control and the T/C (dose: 400.0 mg/kg/injection, schedule: Q01DX001 (ip), vehicle: Klucel (hydroxypropylcellulose) (HPC)) is reported as 99 % of control.
In the case of `CCCCN(CC)CCCCCCCCCCN1CCCc2cc(OC)ccc21`, the T/C [1] is reported as 101 % of control, the T/C [2] is reported as 111 % of control and the T/C [3] is reported as 115 % of control. For the same compound, the T/C [4] was 107 % of control.
`CCCC(C#N)OC(=O)c1ccccc1` (centres undefined) was tested, and the T/C [5] was 104 % of control, the T/C [6] was 100 % of control and the T/C [7] was 104 % of control.
`Cc1ccc(S(=O)(=O)Oc2ccc3oc4c(CO)ccc(NCCN(C)C)c4c(=O)c3c2)cc1` was tested, and the T/C [3] was 97 % of control, the T/C [4] was 96 % of control and the T/C (dose: 200.0 mg/kg/injection, schedule: Q01DX005 (ip), vehicle: saline with Tween-80) was 96 % of control.
In the case of `COc1ccc(-n2c(=O)[nH]c3ccccc3c2=O)cc1`, the T/C [7] is reported as 108 % of control, the T/C [8] is reported as 100 % of control and the T/C [9] is reported as 104 % of control.
For `CCCCN1C(=O)C(=C/C=C/C=C2\Oc3ccccc3N2CCCS(=O)(=O)O)C(=O)N(CCCC)C1=S`, the T/C (dose: 60.0 mg/kg/injection, schedule: Q01DX005 (ip), vehicle: Klucel (hydroxypropylcellulose) (HPC)) was 106 % of control, the T/C (dose: 120.0 mg/kg/injection, schedule: Q01DX005 (ip), vehicle: Klucel (hydroxypropylcellulose) (HPC)) was 106 % of control and the T/C (dose: 240.0 mg/kg/injection, schedule: Q01DX005 (ip), vehicle: Klucel (hydroxypropylcellulose) (HPC)) was 106 % of control.
With `O=C1C=CC(=O)N1C1CCCCC1` the T/C (dose: 6.25 mg/kg/injection, schedule: Q01DX009 (ip), vehicle: Klucel (hydroxypropylcellulose) (HPC)) was 97 % of control, the T/C [10] was 100 % of control and the T/C [11] was 97 % of control.
In the case of `CC(=O)Nc1ccc(SSc2ccc(NC(C)=O)c3cccnc23)c2ncccc12`, the T/C (dose: 0.78 mg/kg/injection, schedule: Q01DX005 (ip), vehicle: saline with Tween-80) is reported as 91 % of control, the T/C (dose: 1.56 mg/kg/injection, schedule: Q01DX005 (ip), vehicle: saline with Tween-80) is reported as 91 % of control and the T/C (dose: 3.13 mg/kg/injection, schedule: Q01DX005 (ip), vehicle: saline with Tween-80) is reported as 90 % of control. For the same compound, the T/C [1] was 86 % of control, the T/C [2] was 95 % of control and the T/C [3] was 115 % of control.
With `Cc1cc(Cl)ccc1S(=O)(=O)F` the T/C [7] was 113 % of control, the T/C [8] was 113 % of control and the T/C [9] was 98 % of control.
For `O=C(CCN1C(=O)c2ccccc2C1=O)c1cnc[nH]1`, the T/C (dose: 17.5 mg/kg/injection, schedule: Q01DX005 (ip), vehicle: Klucel (hydroxypropylcellulose) (HPC)) was 105 % of control, the T/C (dose: 35.0 mg/kg/injection, schedule: Q01DX005 (ip), vehicle: Klucel (hydroxypropylcellulose) (HPC)) was 90 % of control and the T/C (dose: 70.0 mg/kg/injection, schedule: Q01DX005 (ip), vehicle: Klucel (hydroxypropylcellulose) (HPC)) was 98 % of control.
In the case of `CC1[C@@H]2CC=C3[C@H]4CCC5Cc6nc7c(nc6C[C@@]5(C)C4(O)CC(=O)[C@]32CO[C@]12OC(C)(C)CC2O)CC1CC[C@@H]2C3=C[C@H]4O[C@@]5(O[C@@](C)(CO)C[C@@H]5O)C(C)[C@@]4(O)[C@]3(C)[C@@H](O)CC2[C@]1(C)C7` (some centres undefined), the T/C (dose: 10.0 micrograms/kg/injection, schedule: Q01DX005 (ip), vehicle: saline + alcohol) is reported as 114 % of control and 117 % of control and the T/C (dose: 20.0 micrograms/kg/injection, schedule: Q01DX005 (ip), vehicle: saline + alcohol) is reported as 121 % of control.
With `CN1C2CCC1CC(OC(=O)C(CO)c1ccccc1)C2` (centres undefined) the T/C [5] was 105 % of control and 95 % of control, the T/C [6] was 100 % of control and 111 % of control and the T/C [7] was 103 % of control and 92 % of control. The T/C [8] was 100 % of control and 95 % of control and the T/C (dose: 150.0 mg/kg/injection, schedule: Q01DX009 (ip), vehicle: saline with Tween-80) was 112 % of control and 95 % of control.
For `CCOC1CC(C)(O)Cc2cc3c(c(O)c21)C(=O)c1c(O)cc2c(c1C3=O)OC1OC2(C)C(O)C(N(C)C)C1O` (centres undefined), the T/C (dose: 2.5 mg/kg/injection, schedule: Q01DX009 (ip), vehicle: other) was 150 % of control and 156 % of control, the T/C (dose: 3.25 mg/kg/injection, schedule: Q01DX009 (ip), vehicle: other) was 151 % of control and the T/C (dose: 5.0 mg/kg/injection, schedule: Q01DX009 (ip), vehicle: other) was 166 % of control and 207 % of control. For the same compound, the T/C (dose: 6.5 mg/kg/injection, schedule: Q01DX009 (ip), vehicle: other) was 163 % of control, the T/C (dose: 10.0 mg/kg/injection, schedule: Q01DX009 (ip), vehicle: other) was 178 % of control and 205 % of control and the T/C (dose: 13.0 mg/kg/injection, schedule: Q01DX009 (ip), vehicle: other) was 93 % of control. The T/C (dose: 20.0 mg/kg/injection, schedule: Q01DX009 (ip), vehicle: other) was 87 % of control.
In the case of `NC(Cc1ccccc1I)c1nn[nH]n1` (centres undefined), the T/C [6] is reported as 107 % of control, the T/C [7] is reported as 102 % of control and 105 % of control and 111 % of control and the T/C [8] is reported as 98 % of control and 100 % of control and 95 % of control. The T/C [9] was 110 % of control and 97 % of control and the T/C (dose: 400.0 mg/kg/injection, schedule: Q01DX009 (ip), vehicle: saline with Tween-80) was 100 % of control and 96 % of control.
With `COC(=O)CCSCCO` the T/C [12] was 119 % of control, the T/C [13] was 109 % of control and the T/C [14] was 101 % of control.
In the case of `Cc1ccc(S(=O)(=O)OCCOc2ccc(-c3nc4ccccc4[nH]3)cc2)cc1`, the T/C (dose: 100.0 mg/kg/injection, schedule: Q01DX001 (ip), vehicle: saline with Tween-80) is reported as 92 % of control, the T/C (dose: 200.0 mg/kg/injection, schedule: Q01DX001 (ip), vehicle: saline with Tween-80) is reported as 90 % of control and the T/C (dose: 400.0 mg/kg/injection, schedule: Q01DX001 (ip), vehicle: saline with Tween-80) is reported as 101 % of control.
For `CCCCCCCCOCCS(=O)(=O)O`, the T/C [12] was 95 % of control and the T/C [13] was 92 % of control.
In the case of `O=C1CC(=O)N2C=CC=CC2N1` (centres undefined), the T/C [11] is reported as 106 % of control, the T/C [15] is reported as 106 % of control and the T/C [16] is reported as 97 % of control. The T/C [17] was 97 % of control.
`COc1ccc(C(C)c2cc3c(cc2OCCO)OCO3)cc1OC` (centres undefined) was tested, and the T/C (dose: 50.0 mg/kg/injection, schedule: Q01DX005 (ip), vehicle: distilled water + Tween-80) was 97 % of control, the T/C (dose: 100.0 mg/kg/injection, schedule: Q01DX005 (ip), vehicle: distilled water + Tween-80) was 93 % of control and the T/C (dose: 200.0 mg/kg/injection, schedule: Q01DX005 (ip), vehicle: distilled water + Tween-80) was 97 % of control.
With `Cc1ccc([N+](=O)[O-])cc1I` the T/C [15] was 99 % of control, the T/C [16] was 99 % of control and the T/C [17] was 100 % of control.
For `COC(=O)c1noc2c1CSC1=C2CS(=O)(=O)c2ccccc21`, the T/C [12] was 104 % of control, the T/C [13] was 104 % of control and the T/C [14] was 98 % of control.
`ClCCN(CCCl)c1ccc(N=Nc2ccc(-c3ccccc3)cc2)cc1` was tested, and the T/C (dose: 3.0 mg/kg/injection, schedule: Q01DX001 (ip), vehicle: Klucel (hydroxypropylcellulose) (HPC)) was 95 % of control, the T/C (dose: 6.0 mg/kg/injection, schedule: Q01DX001 (ip), vehicle: Klucel (hydroxypropylcellulose) (HPC)) was 103 % of control and the T/C (dose: 12.0 mg/kg/injection, schedule: Q01DX001 (ip), vehicle: Klucel (hydroxypropylcellulose) (HPC)) was 93 % of control.
In the case of `CN(C)CC1CCC1N1c2ccccc2Sc2ccc(Cl)cc21` (centres undefined), the T/C (dose: 50.0 mg/kg/injection, schedule: Q04DX003 (ip), vehicle: Klucel (hydroxypropylcellulose) (HPC)) is reported as 105 % of control, the T/C (dose: 100.0 mg/kg/injection, schedule: Q04DX003 (ip), vehicle: Klucel (hydroxypropylcellulose) (HPC)) is reported as 100 % of control and the T/C (dose: 200.0 mg/kg/injection, schedule: Q04DX003 (ip), vehicle: Klucel (hydroxypropylcellulose) (HPC)) is reported as 98 % of control.
For `CCC(=O)Nc1ccc(N)cc1`, the T/C (dose: 100.0 mg/kg/injection, schedule: Q04DX003 (ip), vehicle: saline) was 98 % of control and the T/C (dose: 200.0 mg/kg/injection, schedule: Q04DX003 (ip), vehicle: saline) was 97 % of control.
For `COc1ccc2c(c1)-c1c3c(cc4ccnc(c14)C2=O)OCO3`, the T/C (dose: 2.5 mg/kg/injection, schedule: Q01DX009 (ip), vehicle: saline with Tween-80) was 107 % of control, the T/C (dose: 5.0 mg/kg/injection, schedule: Q01DX009 (ip), vehicle: saline with Tween-80) was 114 % of control and the T/C (dose: 10.0 mg/kg/injection, schedule: Q01DX009 (ip), vehicle: saline with Tween-80) was 122 % of control.
For `C=C(C)C1CC2(C)C(C)CC(OC(=O)/C(C)=C\C)CC2C(OC(=O)/C(C)=C\C)C1O` (centres undefined), the T/C [10] was 86 % of control, the T/C [11] was 96 % of control and the T/C [15] was 96 % of control. The T/C [16] was 100 % of control.
